Patent publication US12319692B2, “Anti-influenza virus pyrimidine derivatives” (GUANGDONG RAYNOVENT BIOTECH CO., LTD., priority 2016, dated 2025)

How the values were obtained:
[1] = tested on: Influenza virus A/Weiss/43 (H1N1); experiment: Influenza virus cytopathic effect (CPE) experiment in MDCK cells; type: cell-based; conditions: 120 h, 5 days, CCK8 cell viability
[2] = tested on: influenza A virus H1N1 (H1N1 A/WSN/33); experiment: In vivo pharmacodynamics in mouse infection model of influenza A virus H1N1; conditions: female BALB/c mice, H1N1 A/WSN/33, 10 mg/kg oral twice a day, day 1 to day 7, first dose 36 hours after infection

Structure (SMILES)	EC50 [1] [nM]	Weight Losing Rate (day 9) [2] [%]	Survival Rate (percentages) [2] [%]
CC(C)(C)Sc1nc(-c2n[nH]c3ncc(F)cc23)nc(N[C@H]2C3CCC(CC3)[C@@H]2C(=O)O)c1F [WX-274]	0.1		
O=C(O)[C@H]1C2CCC(CC2)[C@@H]1Nc1nc(-c2n[nH]c3ncc(F)cc23)nc(C2CC2F)c1F (stereo partly drawn) [WX-353]	0.039		
CSc1nc(-c2nc(-c3c[nH]c4ncc(F)cc34)nc(N[C@H]3C4CCC(CC4)[C@@H]3C(=O)O)c2F)c[nH]1 [WX-276]	3.6		
Cc1csc(-c2nc(-c3c[nH]c4ncc(F)cc34)nc(N[C@H]3C4CCC(CC4)[C@@H]3C(=O)O)c2F)c1 [WX-285]	32		
CSc1nc(-c2c[nH]c3ncc(F)cc23)nc(N[C@H]2C3CCC(CC3)[C@@H]2C(=O)O)c1F [WX-139]	0.02		
CN(C)Cc1cc(-c2nc(-c3c[nH]c4ncc(F)cc34)nc(N[C@H]3C4CCC(CC4)[C@@H]3C(=O)O)c2F)cs1 [WX-295]	0.013		
Cc1ccc(-c2nc(-c3c[nH]c4ncc(F)cc34)nc(N[C@H]3C4CCC(CC4)[C@@H]3C(=O)O)c2F)s1 [WX-247]	56.6		
CC(C)(C)Sc1nc(-c2c[nH]c3ncc(F)cc23)nc(N[C@H]2C3CCC(CC3)[C@@H]2C(=O)O)c1F [WX-241]	0.01		
CC(C)(C(N)=O)n1cc(-c2nc(-c3c[nH]c4ncc(F)cc34)nc(N[C@H]3C4CCC(CC4)[C@@H]3C(=O)O)c2F)cn1 [WX-286]	3.7		
O=C(O)[C@H]1C2CCC(CC2)[C@@H]1Nc1nc(-c2n[nH]c3ncc(F)cc23)nc(C2(F)CC2)c1F [WX-355]	0.04		
O=C(O)[C@H]1C2CCC(CC2)[C@@H]1Nc1nc(-c2c[nH]c3ncc(F)cc23)nc(-c2cc[nH]n2)c1F [WX-260]	1.1		
O=C(O)[C@H]1C2CCC(CC2)[C@@H]1Nc1nc(-c2c[nH]c3ncc(F)cc23)nc(-c2ccncc2)c1F [WX-230]	0.1		
CC(C)C#Cc1nc(-c2c[nH]c3ncc(F)cc23)nc(N[C@H]2C3CCC(CC3)[C@@H]2C(=O)O)c1F [WX-249]	0.009		
CCSc1nc(-c2c[nH]c3ncc(F)cc23)nc(N[C@H]2C3CCC(CC3)[C@@H]2C(=O)O)c1F [WX-156]	0.01		
CCn1cc(-c2nc(-c3c[nH]c4ncc(F)cc34)nc(N[C@H]3C4CCC(CC4)[C@@H]3C(=O)O)c2F)cn1 [WX-294]	0.1		
O=C(O)[C@H]1C2CCC(CC2)[C@@H]1Nc1nc(-c2n[nH]c3ncc(F)cc23)nc(-c2cn[nH]c2)c1F [WX-265]	2.8		
CN1CC(n2cc(-c3nc(-c4c[nH]c5ncc(F)cc45)nc(N[C@H]4C5CCC(CC5)[C@@H]4C(=O)O)c3F)cn2)C1 [WX-293]	8		
Cn1cc(-c2nc(-c3n[nH]c4ncc(C(F)(F)F)cc34)nc(N[C@H]3C4CCC(CC4)[C@@H]3C(=O)O)c2F)cn1 [WX-280]	0.055		
NC1(c2nc(-c3n[nH]c4ncc(F)cc34)nc(N[C@H]3C4CCC(CC4)[C@@H]3C(=O)O)c2F)CC1 [WX-354]	4.4		
N#C[C@@H]1C[C@H]1c1nc(-c2n[nH]c3ncc(F)cc23)nc(N[C@H]2C3CCC(CC3)[C@@H]2C(=O)O)c1F [WX-360]	0.2		
CN1CCN(C(=O)c2ccc(-c3nc(-c4c[nH]c5ncc(F)cc45)nc(N[C@H]4C5CCC(CC5)[C@@H]4C(=O)O)c3F)s2)CC1 [WX-288]	2.3		
CC(C)Sc1nc(-c2c[nH]c3ncc(F)cc23)nc(N[C@H]2C3CCC(CC3)[C@@H]2C(=O)O)c1F [WX-261]	0.018		
Cn1cc(-c2nc(-c3n[nH]c4ncc(F)cc34)nc(N[C@H]3C4CCC(CC4)[C@@H]3C(=O)O)c2F)cn1 [WX-264]	0.1		
CC1(c2nc(-c3n[nH]c4ncc(F)cc34)nc(N[C@H]3C4CCC(CC4)[C@@H]3C(=O)O)c2F)CC1 [WX-351]	0.2	35.3	
O=C(O)[C@H]1C2CCC(CC2)[C@@H]1Nc1nc(-c2n[nH]c3ncc(F)cc23)nc(C2CC2)c1F [WX-216]	0.013	4.8	100

Structure (SMILES)	EC50 [1] [nM]	Weight Losing Rate (day 9) [2] [%]	Survival Rate (percentages) [2] [%]
O=C(O)[C@H]1C2CCC(CC2)[C@@H]1Nc1nc(-c2c[nH]c3ncc(F)cc23)nc(-c2cnn(CCO)c2)c1F [WX-263]	1.5		
O=C(O)[C@H]1C2CCC(CC2)[C@@H]1Nc1nc(-c2n[nH]c3ncc(F)cc23)nc(-c2ccsc2)c1F [WX-269]	0.019		
O=C(O)[C@H]1C2CCC(CC2)[C@@H]1Nc1nc(-c2c[nH]c3ncc(F)cc23)nc(-c2ccsc2)c1F [WX-240]	0.03		
O=C(O)c1ccc(-c2nc(-c3c[nH]c4ncc(F)cc34)nc(N[C@H]3C4CCC(CC4)[C@@H]3C(=O)O)c2F)s1 [WX-278]	2.7		
O=C(O)[C@H]1C2CCC(CC2)[C@@H]1Nc1nc(-c2c[nH]c3ncc(F)cc23)nc(SCC(F)(F)F)c1F [WX-234]	0.1		
CSc1nc(-c2c[nH]c3c(F)cc(F)cc23)nc(N[C@H]2C3CCC(CC3)[C@@H]2C(=O)O)c1F [WX-160]	0.5		
N#CCn1cc(-c2nc(-c3c[nH]c4ncc(F)cc34)nc(N[C@H]3C4CCC(CC4)[C@@H]3C(=O)O)c2F)cn1 [WX-296]	1		
O=C(O)[C@H]1C2CCC(CC2)[C@@H]1Nc1nc(-c2c[nH]c3ncc(F)cc23)nc(-c2ccc(CN3CCOCC3)s2)c1F [WX-290]	0.041	27.6	40
CN(C)Cc1ccc(-c2nc(-c3c[nH]c4ncc(F)cc34)nc(N[C@H]3C4CCC(CC4)[C@@H]3C(=O)O)c2F)s1 [WX-279]	0.025	28.7	100
O=C(O)[C@H]1C2CCC(CC2)[C@@H]1Nc1nc(-c2c[nH]c3ncc(F)cc23)nc(-c2cccs2)c1F [WX-236]	0.01		
O=C(O)[C@H]1C2CCC(CC2)[C@@H]1Nc1nc(-c2c[nH]c3ncc(F)cc23)nc(-c2ccn(C(F)F)n2)c1F [WX-352]	0.046		
CN1CCN(Cc2ccc(-c3nc(-c4c[nH]c5ncc(F)cc45)nc(N[C@H]4C5CCC(CC5)[C@@H]4C(=O)O)c3F)s2)CC1 [WX-289]	0.1		
Cc1noc(C)c1-c1nc(-c2c[nH]c3ncc(F)cc23)nc(N[C@H]2C3CCC(CC3)[C@@H]2C(=O)O)c1F [WX-245]	4		
CC(C)(C(=O)O)n1cc(-c2nc(-c3c[nH]c4ncc(F)cc34)nc(N[C@H]3C4CCC(CC4)[C@@H]3C(=O)O)c2F)cn1 [WX-284]	10		
N#C[C@H]1C[C@@H]1c1nc(-c2n[nH]c3ncc(F)cc23)nc(N[C@H]2C3CCC(CC3)[C@@H]2C(=O)O)c1F [WX-359]	0.09		
O=C(O)[C@H]1C2CCC(CC2)[C@@H]1Nc1nc(-c2c[nH]c3ncc(F)cc23)nc(-n2ccnc2)c1F [WX-186]	0.1		
O=C(O)[C@H]1C2CCC(CC2)[C@@H]1Nc1nc(-c2n[nH]c3ncc(F)cc23)nc(C2CC2(F)F)c1F (stereo partly drawn) [WX-297]	0.024	27.3	100
N#CC1(c2nc(-c3n[nH]c4ncc(F)cc34)nc(N[C@H]3C4CCC(CC4)[C@@H]3C(=O)O)c2F)CC1 [WX-358]	0.6		
CC(C)(C)C#Cc1nc(-c2c[nH]c3ncc(F)cc23)nc(N[C@H]2C3CCC(CC3)[C@@H]2C(=O)O)c1F [WX-275]	0.009		
O=C(O)[C@H]1C2CCC(CC2)[C@@H]1Nc1nc(-c2n[nH]c3ncc(F)cc23)nc(-c2cccs2)c1F [WX-271]	0.057		
O=C(O)[C@H]1C2CCC(CC2)[C@@H]1Nc1nc(-c2c[nH]c3ncc(F)cc23)nc(-c2ccc(Cl)s2)c1F [WX-298]	6.7		
Cn1cc(-c2nc(-c3c[nH]c4ncc(F)cc34)nc(N[C@H]3C4CCC(CC4)[C@@H]3C(=O)O)c2F)cn1 [WX-231]	0.2	12.9	100
COCCn1cc(-c2nc(-c3c[nH]c4ncc(F)cc34)nc(N[C@H]3C4CCC(CC4)[C@@H]3C(=O)O)c2F)cn1 [WX-283]	0.4		
O=C(O)[C@H]1C2CCC(CC2)[C@@H]1Nc1nc(-c2c[nH]c3ncc(F)cc23)nc(-c2cnn(C3CC3)c2)c1F [WX-281]	0.026		
